Results reported in patent US20250195530A1, “POLQ INHIBITORS” (ASTRAZENECA AB, priority 2022, published 2025).
Like-named read-outs stand apart in the source and are kept apart here.

Tests used:
DLD-1 BRCA2−/− cells = test: Homologous recombination synthetic lethal inhibition of proliferation, DLD-1 BRCA2-/- (Cell Titre Glo 3D); type: cell-based; conditions: Homo sapiens
Summary of the method: (§1)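 Read-out: CellTiter-Glo 3D luminescence, day 7 for wt DLD-1, day 12 for BRCA2−/−, about 8-9 population doublings each. Seeding 1,500 or 3,000 cells/mL respectively. Dose range 10 μM–0.51 nM, 3-fold, 10 points, with re-dosing on day 6. IC50 from curve fit.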

DLD-1 cells = test: Inhibition of proliferation, DLD-1 BRCA2 wt control (Cell Titre Glo 3D); type: cell-based; conditions: Homo sapiens
Summary of the method: as §1

[1] = DLD-1, 288 h, DLD-1 BRCA2−/− cells, 12 days, read-out: POLQ PD Prolif Lumin BRCA2 −/− mean pIC50 (converted)
[2] = DLD-1, 168 h, DLD-1 BRCA2 wt cells, 7 days, read-out: POLQ PD Prolif Lumin DLD1 mean pIC50 (converted)
[3] = DLD-1, DLD-1 BRCA2 −/− cells, mean, read-out: POLQ PD Prolif Lumin BRCA2 −/− mean pIC50 (converted)
[4] = DLD-1, DLD1 BRCA2 wt cells, mean, read-out: POLQ PD Prolif Lumin DLD1 mean PIC50 (converted)
[5] = DLD-1, DLD-1 BRCA2-/- proliferation, column head only partly shown, read-out: POLQ PD Prolif Lumin (converted)
[6] = DLD-1, DLD-1 BRCA2 wt control proliferation, column head only partly shown, read-out: POLQ PD Prolif Lumin (converted)
[7] = DLD-1, proliferation, luminescence, taken as DLD-1 BRCA2-/-, read-out: POLQ PD Prolif Lumin (converted)
[8] = DLD-1, proliferation, luminescence, second Prolif column (c6), taken as DLD-1 BRCA2 wt control, read-out: POLQ PD Prolif Lumin (converted)

| SMILES | IC50 (DLD-1 BRCA2−/− cells; [1]) [nM] | IC50 (DLD-1 cells; [2]) [nM] | also measured |
| --- | --- | --- | --- |
| Cc1cc(OCCCN(C)C)ncc1-c1nc2c(OC3(C)CC3)ncnc2n1Cc1ccccc1 [Example G2, 3-((5-(9-benzyl-6-(1-methylcyclopropoxy)-9H-purin-8-yl)-4-methylpyridin-2-yl)oxy)-N,N-dimethylpropan-1-amine] | 1000 | > 10000 |  |
| CC(=O)N1CCN(CCCOc2ccc(-c3nc4c(OC5(C)CC5)ncnc4n3Cc3ccccc3)c(Cl)c2)CC1 [Example D22, 1-(4-(3-(4-(9-benzyl-6-(1-methylcyclopropoxy)-9H-purin-8-yl)-3-chlorophenoxy)propyl)piperazin-1-yl)ethan-1-one] | 126 | > 10000 |  |
| CC1(Oc2ncnc3c2nc(-c2ccc(OCCN4CCNCC4)cc2Cl)n3Cc2cccc(Cl)c2)CC1 [Example J13, 8-(2-chloro-4-(2-(piperazin-1-yl)ethoxy)phenyl)-9-(3-chlorobenzyl)-6-(1-methylcyclopropoxy)-9H-purine] | 50.1 | 3160 |  |
| CC1(Oc2ncnc3c2nc(-c2ccc(OC4CNC4)cc2Cl)n3Cc2cc(Cl)ccn2)CC1 [Example T50, 8-(4-(azetidin-3-yloxy)-2-chlorophenyl)-9-((4-chloropyridin-2-yl)methyl)-6-(1-methylcyclopropoxy)-9H-purine] |  |  | IC50 (DLD-1 BRCA2−/− cells; [3]): 251 nM; IC50 (DLD-1 cells; [4]): 5010 nM |
| Cc1ccnc(Cn2c(-c3cccc(OCCN(C)C)c3Cl)nc3c(OC4(C)CC4)ncnc32)c1 [Example T237, 2-(2-chloro-3-(6-(1-methylcyclopropoxy)-9-((4-methylpyridin-2-yl)methyl)-9H-purin-8-yl)phenoxy)-N,N-dimethylethan-1-amine] |  |  | IC50 (DLD-1 BRCA2−/− cells; [5]): 50.1 nM; IC50 (DLD-1 cells; [6]): > 10000 nM |
| CC1(Oc2ncnc3c2nc(-c2ccc(OCCN4CCC(O)CC4)cc2Cl)n3Cc2ccccc2)CC1 [Example H15, 1-(2-(4-(9-benzyl-6-(1-methylcyclopropoxy)-9H-purin-8-yl)-3-chlorophenoxy)ethyl)piperidin-4-ol] | 79.4 | 1580 |  |
| Cc1ccnc(Cn2c(-c3ccc(CC(=O)N4C[C@@H](C)N[C@@H](C)C4)cc3Cl)nc3c(OC4(C)CC4)ncnc32)c1 [Example T606, 2-(3-chloro-4-(6-(1-methylcyclopropoxy)-9-((4-methylpyridin-2-yl)methyl)-9H-purin-8-yl)phenyl)-1-((3R,5S)-3,5-dimethylpiperazin-1-yl)ethan-1-one] |  |  | IC50 (DLD-1 BRCA2−/− cells; DLD-1, first proliferation column, DLD-1 BRCA2-/-, read-out: POLQ PD Prolif Lumin (converted)): 794 nM; IC50 (DLD-1 cells; DLD-1, second proliferation column, DLD-1 BRCA2 wt control, read-out: POLQ PD Prolif Lumin (converted)): > 10000 nM |
| Cc1cnc(Cn2c(-c3ccc(OCCCN4CC[C@@H](O)C4)cc3Cl)nc3c(OC4(C)CC4)ncnc32)s1 [Example T391, (R)-1-(3-(3-chloro-4-(6-(1-methylcyclopropoxy)-9-((5-methylthiazol-2-yl)methyl)-9H-purin-8-yl)phenoxy)propyl)pyrrolidin-3-ol] |  |  | IC50 (DLD-1 BRCA2−/− cells; [7]): 501 nM; IC50 (DLD-1 cells; [8]): > 10000 nM |
| Cc1ccnc(Cn2c(-c3ccc(C(=O)N4CCCNCC4)cc3Cl)nc3c(OC4(C)CC4)ncnc32)c1 [Example T496, (3-chloro-4-(6-(1-methylcyclopropoxy)-9-((4-methylpyridin-2-yl)methyl)-9H-purin-8-yl)phenyl)(1,4-diazepan-1-yl)methanone] |  |  | IC50 (DLD-1 BRCA2−/− cells; DLD-1, first proliferation column (c5), DLD-1 BRCA2-/-, read-out: POLQ PD Prolif Lumin (converted)): > 10000 nM; IC50 (DLD-1 cells; DLD-1, second proliferation column (c6), DLD-1 BRCA2 wt control, read-out: POLQ PD Prolif Lumin (converted)): > 10000 nM |
| C[C@@H](CCOc1ccc(-c2nc3c(OC4(C)CC4)ncnc3n2Cc2cc(Cl)ccc2F)c(Cl)c1)C(=O)O [Example U11, (S)-4-(3-chloro-4-(9-(5-chloro-2-fluorobenzyl)-6-(1-methylcyclopropoxy)-9H-purin-8-yl)phenoxy)-2-methylbutanoic acid] |  |  | IC50 (DLD-1 BRCA2−/− cells; DLD-1, DLD-1 BRCA2 −/−, mean, read-out: POLQ PD Prolif Lumin BRCA2 −/− mean pIC50 (converted)): 50.1 nM; IC50 (DLD-1 cells; DLD-1, DLD1 BRCA2 wt, mean, read-out: POLQ PD Prolif Lumin DLD1 mean pIC50 (converted)): > 6310 nM |
| CC1(Oc2ncnc3c2nc(-c2ccc(OCCCCCC(=O)O)cc2Cl)n3Cc2cccc(Cl)c2)CC1 [Example T437, 6-(3-chloro-4-(9-(3-chlorobenzyl)-6-(1-methylcyclopropoxy)-9H-purin-8-yl)phenoxy)hexanoic acid] |  |  | IC50 (DLD-1 BRCA2−/− cells; [7]): 63.1 nM; IC50 (DLD-1 cells; [8]): > 10000 nM |
| CC1(Oc2ncnc3c2nc(-c2ccc(OCCN)cc2Cl)n3Cc2ccccc2)CC1 [Example D23, 2-(4-(9-benzyl-6-(1-methylcyclopropoxy)-9H-purin-8-yl)-3-chlorophenoxy)ethan-1-amine] | 794 | 7940 |  |
| Cc1ccnc(Cn2c(-c3ccc(OCCCS(C)(=O)=O)cc3Cl)nc3c(OC4(C)CC4)ncnc32)c1 [Example T234, 8-(2-chloro-4-(3-(methylsulfonyl)propoxy)phenyl)-6-(1-methylcyclopropoxy)-9-((4-methylpyridin-2-yl)methyl)-9H-purine] |  |  | IC50 (DLD-1 BRCA2−/− cells; [5]): 200 nM; IC50 (DLD-1 cells; [6]): > 10000 nM |
| COc1cc(-c2nc3c(OC4(C)CC4)ncnc3n2Cc2ccccc2)c(Cl)cc1OCCN1CCNCC1 [Example J2, 9-benzyl-8-(2-chloro-5-methoxy-4-(2-(piperazin-1-yl)ethoxy)phenyl)-6-(1-methylcyclopropoxy)-9H-purine] | 794 | 3980 |  |
| C[C@@H](Oc1cccc(-c2nc3c(OC4(C)CC4)ncnc3n2Cc2cccc(Cl)c2)c1Cl)C(=O)O [Example T91, (R)-2-(2-chloro-3-(9-(3-chlorobenzyl)-6-(1-methylcyclopropoxy)-9H-purin-8-yl)phenoxy)propanoic acid] |  |  | IC50 (DLD-1 BRCA2−/− cells; [3]): > 10000 nM; IC50 (DLD-1 cells; [4]): > 10000 nM |
| CN1CCN(CCOc2ccc(-c3nc4c(OC5(C)CC5)ncnc4n3Cc3ccccc3)c(F)c2F)CC1 [Example H5, 9-benzyl-8-(2,3-difluoro-4-(2-(4-methylpiperazin-1-yl)ethoxy)phenyl)-6-(1-methylcyclopropoxy)-9H-purine] | 398 | 7940 |  |
| CC(=O)NCCCOc1ccc(-c2nc3c(OC4(C)CC4)ncnc3n2Cc2ccccc2)c(Cl)c1 [Example D7, N-(3-(4-(9-benzyl-6-(1-methylcyclopropoxy)-9H-purin-8-yl)-3-chlorophenoxy)propyl)acetamide] | 126 | 6310 |  |
| C[C@H](Cn1c(-c2ccc(OCCN3CCNCC3)cc2Cl)nc2c(OC3(C)CC3)ncnc21)c1ccccc1 [Example J9, (S)-8-(2-chloro-4-(2-(piperazin-1-yl)ethoxy)phenyl)-6-(1-methylcyclopropoxy)-9-(2-phenylpropyl)-9H-purine] | 2510 | 5010 |  |
| CC1(Oc2ncnc3c2nc(-c2ccc(OCCCO)cc2Cl)n3Cc2cc(Cl)ccn2)CC1 [Example T64, 3-(3-chloro-4-(9-((4-chloropyridin-2-yl)methyl)-6-(1-methylcyclopropoxy)-9H-purin-8-yl)phenoxy)propan-1-ol] |  |  | IC50 (DLD-1 BRCA2−/− cells; [3]): 158 nM; IC50 (DLD-1 cells; [4]): > 10000 nM |
| Cc1cc(OCCCN)ncc1-c1nc2c(OC3(C)CC3)ncnc2n1Cc1ccccc1 [Example G9, 3-((5-(9-benzyl-6-(1-methylcyclopropoxy)-9H-purin-8-yl)-4-methylpyridin-2-yl)oxy)propan-1-amine] | 794 | 1580 |  |
